Measurements published in patent US20250109134A1 (Ascentage Pharma (Suzhou) Co., Ltd., priority 2022, published 2025).

Test: Polymorph screening (suspension, anti-solvent, gas-liquid diffusion, slow volatilization methods), resulting form by XRPD
Format: physicochemical
Method: The sample was quickly centrifuged (6000 rpm, 5 min) to remove a supernatant. The resulting precipitate was subjected to vacuum drying (40° C., −0.1 MPa) for 20 h, followed by physical characterization.
The resulting precipitate was subjected to vacuum drying at 40° C. for 20 h, followed by physical characterization.
No clear solution was obtained, and the sample was still undissolved after 1 mL of solvent was added. Then, 500 μL of poor solvent (acetone, ACN, MeOH, EtOAc, THE, or […]) was added, and 40 mg of the sample was added to perform an experiment by a suspension method. All suspension samples were stirred at 50° C. for 2 days and quickly centrifuged (6000 rpm, 5 min) to remove a supernatant. The resulting solid was subjected to vacuum drying at 40° C. for 20 h, followed by physical characterization.
The compound of formula I was subjected to polymorph screening with DCM as a good solvent and with MeOH, EtOH, THE, or EA as an anti-solvent, and was dissolved in both DCM and MeOH systems. The suspension sample was stirred for 2 days and quickly centrifuged to remove a supernatant. The resulting precipitate was subjected to vacuum drying at 25° C. for 20 h, followed by physical characterization.
The resulting precipitate was subjected to vacuum drying at room temperature for 20 h, followed by physical characterization.
The resulting precipitate was subjected to vacuum drying for 20 h.
Sonication was performed for 1 min to obtain a clear solution, which was filtered through a 0.22 μm filter membrane and aliquoted into seven 8 mL glass flasks. An anti-solvent was added until precipitation occurred. The sample was stirred at room temperature for 1 day and quickly centrifuged. The resulting solid precipitate was subjected to vacuum drying.
Then, an anti-solvent was added until precipitation occurred, and the mixture was stirred at room temperature overnight and quickly centrifuged (6000 rpm, 6 min) to remove a supernatant. The resulting precipitate was subjected to vacuum drying for 20 h.
Then, the solution was added to a 20 mL glass flask containing 2 mL of an anti-solvent (shown in the following table), and the flask was tightly capped at room temperature and placed in a fume hood for diffusion. When precipitation occurred, the flask was taken out, and the resulting precipitate was subjected to vacuum drying for 20 h.
The flask placed in a fume hood at room temperature for diffusion. When precipitation occurred, the flask was taken out, and the resulting precipitate was subjected to vacuum drying for 20 h.
The mixture was stirred at 50° C. or room temperature for 6 days and quickly centrifuged (6000 rpm, […]) to remove a supernatant. The resulting precipitate was subjected to vacuum drying for 20 h.

CC(C)N1Cc2cc(C(F)(F)F)ncc2-c2cnc(NCc3c(F)ccc4c3CCO4)n3cnc(c23)C1=O.CS(=O)(=O)O
Crystalline form results (anti-solvent method, good solvent DCM/MeOH = 2-1 (20 mg/mL), anti-solvent Methyl acetate, room temperature overnight): No precipitation
Crystalline form results (anti-solvent method, good solvent DMF (50 mg/mL), anti-solvent Acetonitrile, room temperature overnight): Crystalline form A
Crystalline form results (anti-solvent method, good solvent DMF (50 mg/mL), anti-solvent Dimethyl tetrahydrofuran, room temperature overnight): No precipitation
Crystalline form results (anti-solvent method, good solvent DMF (50 mg/mL), anti-solvent Methyl acetate, room temperature overnight): Dissociation into a free base
Crystalline form results (anti-solvent method, good solvent DMF (50 mg/mL), anti-solvent n-heptane, room temperature overnight): No precipitation
Crystalline form results (anti-solvent method, good solvent MeOH (10 mg/mL), anti-solvent Acetonitrile, room temperature overnight): No precipitation
Crystalline form results (anti-solvent method, good solvent MeOH (10 mg/mL), anti-solvent Dimethyl tetrahydrofuran, room temperature overnight): No precipitation
Crystalline form results (anti-solvent method, good solvent MeOH (10 mg/mL), anti-solvent Methyl acetate, room temperature overnight): No precipitation
Crystalline form results (anti-solvent method, good solvent MeOH (10 mg/mL), anti-solvent n-heptane, room temperature overnight): No precipitation
Crystalline form results (anti-solvent method, good solvent NMP (50 mg/mL), anti-solvent Acetonitrile, room temperature overnight): Presumably an NMP solvate
Crystalline form results (anti-solvent method, good solvent NMP (50 mg/mL), anti-solvent Dimethyl tetrahydrofuran, room temperature overnight): Presumably an NMP solvate
Crystalline form results (anti-solvent method, good solvent NMP (50 mg/mL), anti-solvent Ethyl acetate, room temperature overnight): Dissociation into a free base
Crystalline form results (anti-solvent method, good solvent NMP (50 mg/mL), anti-solvent Methyl acetate, room temperature overnight): Presumably an NMP solvate
Crystalline form results (anti-solvent method, good solvent NMP (50 mg/mL), anti-solvent Tert-butyl methyl ether, room temperature overnight): Presumably an NMP solvate
Crystalline form results (anti-solvent method, good solvent NMP (50 mg/mL), anti-solvent n-heptane, room temperature overnight): Presumably an NMP solvate
Crystalline form results (gas-liquid diffusion method, good solvent DMF (50 mg/mL), anti-solvent 2-MeTHF, room temperature): No precipitation
Crystalline form results (gas-liquid diffusion method, good solvent DMF (50 mg/mL), anti-solvent ACN, room temperature): No precipitation
Crystalline form results (gas-liquid diffusion method, good solvent DMF (50 mg/mL), anti-solvent EtOAc, room temperature): No precipitation
Crystalline form results (gas-liquid diffusion method, good solvent DMF (50 mg/mL), anti-solvent FA, room temperature): No precipitation
Crystalline form results (gas-liquid diffusion method, good solvent DMF (50 mg/mL), anti-solvent Heptane, room temperature): No precipitation
Crystalline form results (gas-liquid diffusion method, good solvent DMF (50 mg/mL), anti-solvent MTBE, room temperature): No precipitation
Crystalline form results (gas-liquid diffusion method, good solvent MeOH (10 mg/mL), anti-solvent 2-MeTHF, room temperature): No precipitation
Crystalline form results (gas-liquid diffusion method, good solvent MeOH (10 mg/mL), anti-solvent ACN, room temperature): No precipitation
Crystalline form results (gas-liquid diffusion method, good solvent MeOH (10 mg/mL), anti-solvent FA, room temperature): No precipitation
Crystalline form results (gas-liquid diffusion method, good solvent MeOH (10 mg/mL), anti-solvent Heptane, room temperature): No precipitation
Crystalline form results (gas-liquid diffusion method, good solvent NMP (50 mg/mL), anti-solvent 2-MeTHF, room temperature): Possibly an NMP solvate
Crystalline form results (gas-liquid diffusion method, good solvent NMP (50 mg/mL), anti-solvent ACN, room temperature): Possibly an NMP solvate
Crystalline form results (gas-liquid diffusion method, good solvent NMP (50 mg/mL), anti-solvent EtOAc, room temperature): Dissociation into a free base
Crystalline form results (gas-liquid diffusion method, good solvent NMP (50 mg/mL), anti-solvent FA, room temperature): Possibly an NMP solvate
Crystalline form results (gas-liquid diffusion method, good solvent NMP (50 mg/mL), anti-solvent Heptane, room temperature): Possibly an NMP solvate
Crystalline form results (gas-liquid diffusion method, good solvent NMP (50 mg/mL), anti-solvent MTBE, room temperature): Possibly an NMP solvate
Crystalline form results (slow volatilization method, solvent DCM/MeOH = 2-1, room temperature): Crystalline form B
Crystalline form results (slow volatilization method, solvent EtOH/EA = 2-1, room temperature): Crystalline form A
Crystalline form results (slow volatilization method, solvent EtOH, room temperature): Crystalline form B
Crystalline form results (slow volatilization method, solvent MeOH/FA = 2-1, room temperature): Crystalline form B
Crystalline form results (slow volatilization method, solvent MeOH, room temperature): Crystalline form A
Crystalline form results (solvent ACN—H2O 1-1, initial crystalline form A of methanesulfonate salt): Crystalline form A
Crystalline form results (solvent H2O, initial crystalline form A of methanesulfonate salt): Crystalline form A
Crystalline form results (solvent MeOH—H2O 1-1, initial crystalline form A of methanesulfonate salt): Crystalline form A

CC(C)N1Cc2cc(C(F)(F)F)ncc2-c2cnc(NCc3c(F)ccc4c3CCO4)n3cnc(c23)C1=O.Cl
Crystalline form results (solvent 1,4-dioxane, suspension, 40° C., 3 days, from crystalline form A of hydrochloride salt): Crystalline form A of hydrochloride salt
Crystalline form results (solvent 88% acetone, suspension, 40° C., 3 days, from crystalline form A of hydrochloride salt): Crystalline form B
Crystalline form results (solvent ACN, suspension, 40° C., 3 days, from crystalline form A of hydrochloride salt): Crystalline form A of hydrochloride salt
Crystalline form results (solvent Acetone, suspension, 40° C., 3 days, from crystalline form A of hydrochloride salt): Crystalline form A of hydrochloride salt
Crystalline form results (solvent EtOAc, suspension, 40° C., 3 days, from crystalline form A of hydrochloride salt): Crystalline form A of hydrochloride salt
Crystalline form results (solvent EtOH, suspension, 40° C., 3 days, from crystalline form A of hydrochloride salt): Ethanol solvate of hydrochloride salt
Crystalline form results (solvent EtOH—H2O = 3-1, suspension, 40° C., 3 days, from crystalline form A of hydrochloride salt): Crystalline form A
Crystalline form results (solvent H2O, suspension, 40° C., 3 days, from crystalline form A of hydrochloride salt): Crystalline form A of hydrochloride salt
Crystalline form results (solvent IPA, suspension, 40° C., 3 days, from crystalline form A of hydrochloride salt): Isopropanol solvate of hydrochloride salt
Crystalline form results (solvent MeOH, suspension, 40° C., 3 days, from crystalline form A of hydrochloride salt): Partial dissociation into crystalline form A
Crystalline form results (solvent MeOH—H2O = 3-1, suspension, 40° C., 3 days, from crystalline form A of hydrochloride salt): Crystalline form A
Crystalline form results (solvent Toluene, suspension, 40° C., 3 days, from crystalline form A of hydrochloride salt): Crystalline form A of hydrochloride salt
Crystalline form results (solvent n-butanol, suspension, 40° C., 3 days, from crystalline form A of hydrochloride salt): Crystalline form A of hydrochloride salt
